The values that follow come from patent US20220062440A1, “OLIGOMER-SELECTIVE FLUORESCENT INDICATOR DYES” (University of South Florida, priority 2018, published 2022).

The target in experiment [1] is T1, hen egg-white lysozyme (hewL) amyloid aggregates: gO/CFs vs. RFs (Gallus gallus, UniProt P00698).
T1 construct: hen egg-white lysozyme (hewL); from tissue
The experiment is described as follows: Kinetic dye screening assay: dye fluorescence response during sigmoidal vs. biphasic amyloid assembly, ThT as reference. The class given is binding. As to conditions: for Oligomer (gO/CF) selectivity over fibrils: hewL amyloid assembly, sigmoidal vs. biphasic kinetics; for Fluorescence response to initial gO/CF (oligomer) phase of biphasic growth / Fluorescence response to RF nucleation and growth: hewL, pH 2, 52° C.; for Fluorescence response to initial gO/CF (oligomer) phase of biphasic growth: above COC (biphasic regime); for Fluorescence response to RF nucleation and growth: second phase of biphasic growth or sigmoidal growth. The source says: A kinetic assay that clearly delineates growth conditions dominated by gO/CF or RF formation as simple function of protein concentration was developed. This kinetic assay was used in conjunction with high-resolution (AFM or TEM) imaging of aggregate morphologies to identify dyes that display well-defined selectivity of gO/CFs over RFs (FIGS. 1A-1E).
The basis of the kinetic assay is the existence of a “critical oligomer concentration” or COC, distinct from and higher than the protein concentration required for fibril growth [Tatiana Miti, et al. Biomacromolecules (2015) 16:326-335]. Using both hen-egg white lysozyme and a dimeric Aβ construct, it was shown that crossing this COC causes a sharp transition in ThT kinetics from the ubiquitous “sigmoidal” growth kinetics of nucleated polymerization to lag-free bimodal kinetics. The initial phase of bimodal growth is dominated by gO/CF formation while the secondary upswing indicates RF nucleation and growth [Filip Hasecke, et al. Chem. Sci. (2018) 9: 5937-5948]. When below this COC HEWL grows RFS aggregates with a distinct lag phase before the start of growth. Monitoring dye responses both below and above the COC allows rapid determination whether a given fluorescent dye responds only to the initial gO/CF or subsequent RF phase of amyloid growth.
Kinetic transition is an indicator of oligomer formation (Hasecke F. et al., Chem. Sci., 2018 9:5937-5948). The onset of gO/CF formation is delineated by a threshold protein concentration referred to herein as the “critical oligomer concentration” or COC. […] No populations of gO/CFs are observed. In contrast, gO/CF formation above the COC has no lag periods and results in biphasic kinetics (saturating gO/CF kinetics is superimposed to sigmodal RF kinetics). AFM confirms that the initial phase represents gO/CF formation while the second phase indicates RF nucleation and growth. Using this transition from sigmoidal to biphasic kinetics provides an efficient assay for screening dyes for their response to these distinct aggregate species.
Instead of requiring isolation and stabilization of amyloid oligomers, the dye screening protocol proposed here takes the identification of two distinct amyloid assembly regimes with distinctly different assembly kinetics (see FIG. 6 and Hasecke, F., et al. Chemical Science, 2018. 9:5937-5948). […] Following the initial lag phase, this regime yields pure populations of “traditional” rigid fibrils (RFs). It lacks any detectable populations of metastable globular oligomers (gOs) or curvilinear fibrils (CFs) during any stage of fibril assembly. Upon crossing a threshold protein (or salt) concentration a second, oligomer-dominated regime emerges. This regime is characterized by lag-free formation of readily detectable populations of gOs and CFs during its initial phase, with RFs emerging in a second growth phase. The transition to this regime is characterized by a concurrent switch in ThT-monitored assembly kinetics from sigmoidal to biphasic kinetics (Hasecke, F., et al. Chemical Science, 2018. 9:5937-5948; Miti, T., et al. Biomacromolecules, 2015. 16:326-335; Foley, J., et al. J Chem Phys., 2013. 139:121901; Hill, S. E., et al. PLoS ONE, 2011. 6:e18171). Monitoring fluorescence responses of dyes to amyloid assembly under either sigmoidal or biphasic growth conditions provides a direct and straight-forward readout for their selectivity to oligomer over fibril formation.
Using the above transition in the model amyloid hewL a small subset of about one dozen dyes were screened for oligomer-selective responses. Oligomer-free sigmoidal kinetics provided the read-out for dye responses to pure fibril formation—relative to the ThT response recorded under the same conditions. Responsiveness of dyes to gO/CF formation was evaluated during the initial gO/CF phase of biphasic kinetics, as long as it was well separated from the second RF-related upswing. […]

The subject of experiment [2] is amyloid aggregates (gO/CF and RF). As to conditions: cited from earlier work; for Response to gO/CF vs. RF aggregates (selectivity): literature / background statement.
In experiment [3] the target is T2, hen egg-white lysozyme (hewL) amyloid aggregates (Gallus gallus, UniProt P00698).
T2 construct: hen egg-white lysozyme (hewL); from tissue
T2 sequence (P00698 19-147): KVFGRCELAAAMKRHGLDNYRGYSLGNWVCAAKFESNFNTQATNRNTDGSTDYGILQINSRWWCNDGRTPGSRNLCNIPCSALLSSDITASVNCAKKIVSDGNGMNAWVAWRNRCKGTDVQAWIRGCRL
The experiment is described as follows: AFM imaging of hewL aggregate morphologies during biphasic growth in the presence of dye. As to conditions: 5 mg/ml hewL, pH 2, 52° C., CV 5 μM, listed as CV. The source says: FIG. 8B contains AFM images from aliquots taken during biphasic amyloid growth in FIG. 8A from the CV wells at the indicated time points. […] This kinetic assay was used in conjunction with high-resolution (AFM or TEM) imaging of aggregate morphologies to identify dyes that display well-defined selectivity of gO/CFs over RFs (FIGS. 1A-1E). Using the above transition in the model amyloid hewL a small subset of about one dozen dyes were screened for oligomer-selective responses. Oligomer-free sigmoidal kinetics provided the read-out for dye responses to pure fibril formation—relative to the ThT response recorded under the same conditions. Responsiveness of dyes to gO/CF formation was evaluated during the initial gO/CF phase of biphasic kinetics, as long as it was well separated from the second RF-related upswing. Even this very limited and fairly arbitrary set of dyes yielded three different dyes with a modest level of oligomer-specific responses (FIG. 7). While encouraging, the level of oligomer selectivity, the overall fluorescence change upon either fibril or oligomer formation, or the rapid bleaching of the dyes under these growth conditions didn't warrant further investigation. […] It confirms that the progression of hewL aggregates during biphasic growth is not altered by the presence of CV.

Entries after “also recorded” stand apart in the source; their conditions may differ. Where two headings read alike, the source gives them in different places.

T1 sequence (P00698 19-147): as above

On to `CN(C)c1ccc2cc3ccc(N(C)C)cc3nc2c1` [acridine orange, reference compound], for which, in experiment [1], the “Oligomer (gO/CF) selectivity over fibrils” value (“Oligomer (gO/CF) selectivity” below) is given as “(weak) select responses to oligomer-dominated phase”.
As to `N#CC(C#N)=Cc1ccc(-c2ccc(-c3ccc(O)cc3)s2)s1` [NIAD-4], the “Response to gO/CF vs. RF aggregates (selectivity)” value (from here on “Response … (selectivity)”) in experiment [2] was “preferentially respond to late stage RFs instead of gOs and CFs”.
Take `Nc1c(/N=N/c2ccc(-c3ccc(/N=N/c4cc(S(=O)(=O)O)c5ccccc5c4N)cc3)cc2)cc(S(=O)(=O)O)c2ccccc12` [congo red]: the “Response … (selectivity)” value in experiment [2] was “preferentially respond to late stage RFs instead of gOs and CFs”.
Turning to `Cc1ccc2c(c1)sc(-c1ccc(N(C)C)cc1)[n+]2C.[Cl-]` [ThT, reference compound], the “Fluorescence response to initial gO/CF (oligomer) phase of biphasic growth” value (“Fluorescence response to initial gO/CF” for short) in experiment [1] is “robust response to the initial gO/CF dominated phase; also recorded: expected biphasic behavior as the sample grows gO/CFs up to a first plateau; also recorded: weak biphasic response; also recorded: identical response to amyloid growth prior to the onset of RF formation”. Besides, the “Fluorescence response to RF nucleation and growth” value in experiment [1] is “readily picked up; also recorded: second upswing and plateau indicating the onset of RF nucleation and growth; also recorded: continues to rise following RF nucleation”. In addition, the “Response … (selectivity)” value in experiment [2] is “responds to both gO/CF and RF aggregates, albeit with different sensitivities; also recorded: highly skewed towards late-stage amyloid fibrils”; in experiment [2] (listed as Thioflavin T), “considerably less enhanced by gO/CF vs. RF formation”; in experiment [2] (listed as thioflavin T), “preferentially respond to late stage RFs instead of gOs and CFs”.
As to `CC1=C/C(=C(\c2ccc(N)c(S(=O)(=O)[O-])c2)c2ccc(N)c(S(=O)(=O)O)c2)C=C(S(=O)(=O)[O-])C1=N.[Na+].[Na+]` [acid fuchsin, reference compound], the “Oligomer (gO/CF) selectivity” value in experiment [1] is “(weak) select responses to oligomer-dominated phase”.
In the case of `N#CC(C#N)=Cc1cc2c3c(c1)CCCN3CCC2` [DCVJ, 9-(Dicyanovinyl) Julolidine], the “Response … (selectivity)” value in experiment [2] is “some oligomer selectivity”.
As for `CN(C)c1ccc(C(=C2C=CC(=[N+](C)C)C=C2)c2ccc(N(C)C)cc2)cc1` [crystal violet, tris(4-(dimethylamino)phenyl)methylium chloride], in experiment [1], the “Oligomer (gO/CF) selectivity” value was “oligomer-selective dye and noticeable oligomer selectivity and OSD and preferentially enhanced upon binding to gO/CFs”; the “Fluorescence response to initial gO/CF” value is “responds nearly exclusively to the initial (oligomer) phase; also recorded: identical response to amyloid growth prior to the onset of RF formation”; the “Fluorescence response to RF nucleation and growth” value is on record as “weak fibril response; also recorded: little or no response to the onset of RF formation; also recorded: level off”. Further, in experiment [1] (listed as CV), the “Fluorescence response to initial gO/CF” value is reported as “robust response to the initial gO/CF dominated phase”; the “Fluorescence response to RF nucleation and growth” value was “lacks the upswing to subsequent RF nucleation and growth; also recorded: weak response to RF formation”. For the same compound, in experiment [1] (listed as Crystal violet), the “Fluorescence response to initial gO/CF” value is listed as “closely match the kinetics of the initial gO/CF phase in ThT kinetics”; the “Fluorescence response to RF nucleation and growth” value is “very weak responses upon the onset of RF formation”. Also, the “Temporal correlation of dye signal with ThT signal” value in experiment [1] (sigmoidal and initial phase of biphasic growth of hewL) is “one-to-one temporal correlation”. Besides, the Amyloid staining entry in experiment [2] (literature (Cooper 1969)) is “weak metachromatic amyloid stain”. The “Effect of dye on aggregate types / progression of aggregates (AFM)” value in experiment [3] is “not altered; also recorded: did not alter the types of aggregates observed”.
On to `O=C(O)c1cc(/C=C/c2ccc(/C=C/c3ccc(O)c(C(=O)O)c3)cc2)ccc1O` [X-34, reference compound], for which the “Oligomer (gO/CF) selectivity” value in experiment [1] is listed as “(weak) select responses to oligomer-dominated phase”.
For methyl violet, the “Oligomer (gO/CF) selectivity” value in experiment [1] is on record as “noticeable oligomer selectivity”.
